# Source: patent US20260048047A1, “SMALL-MOLECULE ACTIVATORS OF MYCOBACTERIUM TUBERCULOSIS ADENYLYL CYCLASE” (priority 2022, published 2026)
# Tested on: M. tuberculosis
# Test: Extracellular activity against M. tuberculosis in cholesterol media (Alamar Blue reduction assay)
# Type: cell-based, Mycobacterium tuberculosis
# Settings: Mycobacterium tuberculosis, 240 h, 7H12-Cholesterol media, 10 days; read-out: Cholesterol broth: alamar blue--EC50
row,SMILES,EC50
1,"Cc1nonc1CC(=O)N1CCC(n2nnc(-c3ccccc3)n2)CC1 [Compound 80, 2-(4-methyl-1,2,5-oxadiazol-3-yl)-1-(4-(5-phenyl-2H-tetrazol-2-yl)piperidin-1-yl)ethan-1-one, reference compound]",1.58 µM
2,"Cc1nnn(C2CCN(C(=O)Cc3nonc3C)CC2)n1 [Compound 81, 2-(4-methyl-1,2,5-oxadiazol-3-yl)-1-(4-(5-methyl-2H-tetrazol-2-yl)piperidin-1-yl)ethan-1-one]",> 10 µM
3,"Cc1noc(C2CCN(C(=O)Cc3nonc3C)CC2)n1 [Compound 82, 1-(4-(3-methyl-1,2,4-oxadiazol-5-yl)piperidin-1-yl)-2-(4-methyl-1,2,5-oxadiazol-3-yl)ethan-1-one]",> 10 µM
4,"Cc1nonc1CC(=O)N1CCC(c2nc(C(C)C)no2)CC1 [Compound 83, 1-(4-(3-isopropyl-1,2,4-oxadiazol-5-yl)piperidin-1-yl)-2-(4-methyl-1,2,5-oxadiazol-3-yl)ethan-1-one]",> 10 µM
5,"Cc1nonc1CC(=O)N1CCC(c2nc(C3(C)CCCCC3)no2)CC1 [Compound 84, 2-(4-methyl-1,2,5-oxadiazol-3-yl)-1-(4-(3-(1-methylcyclohexyl)-1,2,4-oxadiazol-5-yl)piperidin-1-yl)ethan-1-one]",2.13 µM
6,"Cc1nonc1CC(=O)N1CCC(c2nc(C3(C)COC3)no2)CC1 [Compound 85, 2-(4-methyl-1,2,5-oxadiazol-3-yl)-1-(4-(3-(3-methyloxetan-3-yl)-1,2,4-oxadiazol-5-yl)piperidin-1-yl)ethan-1-one]",> 10 µM
7,"Cc1nonc1CC(=O)N1CCC(c2nc(C3CC3(C)C)no2)CC1 (centres unmarked) [Compound 86, 1-(4-(3-(2,2-dimethylcyclopropyl)-1,2,4-oxadiazol-5-yl)piperidin-1-yl)-2-(4-methyl-1,2,5-oxadiazol-3-yl)ethan-1-one]",1.81 µM
8,"Cc1nonc1CC(=O)N1CCC(c2nc(C3CCC(C)(C)C3)no2)CC1 (centres unmarked) [Compound 87, 1-(4-(3-(3,3-dimethylcyclopentyl)-1,2,4-oxadiazol-5-yl)piperidin-1-yl)-2-(4-methyl-1,2,5-oxadiazol-3-yl)ethan-1-one]",0.249 µM
9,"Cc1nonc1CC(=O)N1CCC(c2nc(C3CCC(C)(C)CC3)no2)CC1 [Compound 88, 1-(4-(3-(4,4-dimethylcyclohexyl)-1,2,4-oxadiazol-5-yl)piperidin-1-yl)-2-(4-methyl-1,2,5-oxadiazol-3-yl)ethan-1-one]",0.181 µM
10,"Cc1nonc1CC(=O)N1CCC(c2nc(C3CCCC(C)(C)C3)no2)CC1 (centres unmarked) [Compound 89, 1-(4-(3-(3,3-dimethylcyclohexyl)-1,2,4-oxadiazol-5-yl)piperidin-1-yl)-2-(4-methyl-1,2,5-oxadiazol-3-yl)ethan-1-one]",0.512 µM
11,"Cc1nonc1CC(=O)N1CCC(c2noc(C34CC(C)(C3)C4)n2)CC1 [Compound 90, 2-(4-methyl-1,2,5-oxadiazol-3-yl)-1-(4-(5-(3-methylbicyclo[1.1.1]pentan-1-yl)-1,2,4-oxadiazol-3-yl)piperidin-1-yl)ethan-1-one]",2.05 µM
12,"COC(C)c1noc(C2CCN(C(=O)Cc3nonc3C)CC2)n1 (centres unmarked) [Compound 91, 1-(4-(3-(1-methoxyethyl)-1,2,4-oxadiazol-5-yl)piperidin-1-yl)-2-(4-methyl-1,2,5-oxadiazol-3-yl)ethan-1-one]",> 10 µM
13,"COCc1noc(C2CCN(C(=O)Cc3nonc3C)CC2)n1 [Compound 92, 1-(4-(3-(methoxymethyl)-1,2,4-oxadiazol-5-yl)piperidin-1-yl)-2-(4-methyl-1,2,5-oxadiazol-3-yl)ethan-1-one]",> 10 µM
14,"Cc1nonc1CC(=O)N1CCC(c2nc(-c3ccc(Cl)cc3Cl)no2)CC1 [Compound 94, 1-(4-(3-(2,4-dichlorophenyl)-1,2,4-oxadiazol-5-yl)piperidin-1-yl)-2-(4-methyl-1,2,5-oxadiazol-3-yl)ethan-1-one]",0.146 µM
